Type in all cases: functional, cell-based
Data set [1] has as its target T1, Solute carrier family 22 member 11 (Homo sapiens, UniProt Q9NSA0).
T1 sequence (Q9NSA0 whole entry): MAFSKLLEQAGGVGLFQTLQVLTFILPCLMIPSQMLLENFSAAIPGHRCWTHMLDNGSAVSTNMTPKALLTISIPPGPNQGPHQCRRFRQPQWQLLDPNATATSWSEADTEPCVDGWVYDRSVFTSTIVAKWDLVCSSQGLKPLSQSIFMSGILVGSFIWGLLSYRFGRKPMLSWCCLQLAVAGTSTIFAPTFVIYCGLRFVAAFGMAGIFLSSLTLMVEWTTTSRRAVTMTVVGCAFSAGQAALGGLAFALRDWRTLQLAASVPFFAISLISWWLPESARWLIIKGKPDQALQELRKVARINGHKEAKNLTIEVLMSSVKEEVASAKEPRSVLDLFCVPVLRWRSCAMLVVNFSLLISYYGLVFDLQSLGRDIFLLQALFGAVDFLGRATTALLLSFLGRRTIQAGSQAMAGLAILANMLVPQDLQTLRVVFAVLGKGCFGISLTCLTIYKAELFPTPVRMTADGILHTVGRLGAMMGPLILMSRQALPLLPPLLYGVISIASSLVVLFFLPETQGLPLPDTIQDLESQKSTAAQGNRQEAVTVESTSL
Briefly: TP_TRANSPORTER: inhibition of Ochratoxin A uptake (OTA: 1 uM, PAH: 200 uM) in OAT4-expressing S2 cells. The conditions noted are these: mouse, s2, 200 µM.

The target in data set [2] is T1, Solute carrier family 22 member 11. Briefly: TP_TRANSPORTER: inhibition of Ochratoxin A uptake (OTA: 1 uM, Indomethacin: 200 uM) in OAT4-expressing S2 cells. The note with it: mouse, s2, 200 µM.
Data set [3] shares this target. Briefly: TP_TRANSPORTER: inhibition of Ochratoxin A uptake in OAT4-expressing S2 cells.
In data set [4] the target is T2, OAT4 (SLC22A11, solute carrier family 22 member 11) (Homo sapiens, UniProt Q9NSA0).
T2 sequence (Q9NSA0 whole entry): T1 sequence (Q9NSA0 whole entry)
Description: TP_TRANSPORTER: uptake in OAT4-expressing S2 cells.

Data set [5] concerns the target T1, Solute carrier family 22 member 11. Briefly: TP_TRANSPORTER: inhibition of Ochratoxin A uptake (OTA: 1 uM, PCG: 200 uM) in OAT4-expressing S2 cells. The note with it: s2, 200 µM.
For data set [6] the target is unchanged. Description: TP_TRANSPORTER: inhibition of Ochratoxin A uptake (OTA: 1 uM, Aspartame: 200 uM) in OAT4-expressing S2 cells. The note with it: s2, 200 µM.

For `Nc1ccc(C(=O)NCC(=O)O)cc1` [AMINOHIPPURIC ACID], the Activity entry in data set [1] was “is not an inhibitor [-]”. For the molecule `COc1ccc2c(c1)c(CC(=O)O)c(C)n2C(=O)c1ccc(Cl)cc1` [INDOMETHACIN], the Activity entry in data set [2] is “inhibitor [(at a rough estimate) 75 % of control]”. Consider `CC1=C2C(=CO[C@H](C)[C@H]2C)C(O)=C(C(=O)O)C1=O` [CITRININ], for which the affinity in data set [3] corresponds to a Ki of 366 µM. On the same count and under the same terms, to `CN1C(C(=O)Nc2ccccn2)=C(O)c2ccccc2S1(=O)=O` [PIROXICAM] belongs 108 µM.

As for `C[C@@H]1Cc2c(Cl)cc(C(=O)N[C@@H](Cc3ccccc3)C(=O)O)c(O)c2C(=O)O1` [3R14S-OCHRATOXIN A], the Km in data set [4] was 22.9 µM. `CC1(C)S[C@@H]2[C@H](NC(=O)Cc3ccccc3)C(=O)N2[C@H]1C(=O)O` [PENICILLIN G]: in data set [5], the Activity result is “inhibitor [(at a rough estimate) 20 % of control]”. As for `COC(=O)[C@H](Cc1ccccc1)NC(=O)[C@@H](N)CC(=O)O`, the Activity result in data set [6] is “inhibitor [(at a rough estimate) 80 % of control]”. Regarding `CCCCCCCC(=O)O` [OCTANOIC ACID], in data set [3], the inhibition constant (Ki) turned out to be 236 µM.

For orientation: Ki means a dissociation constant, usually derived from enzyme kinetics or from competition with a known ligand. A lower Ki goes with a stronger hold on the target. As usually defined, the Km is the concentration of substrate that gives half-maximal velocity.

The record behind these values is ChEMBL document CHEMBL2074315, “Role of human organic anion transporter 4 in the transport of ochratoxin A” (Biochim Biophys Acta, 2002).
